Source: patent publication US20240158446A1, “CYCLIC COMPOUND HAVING SELECTIVE INHIBITORY ACTION ON KRAS OVER HRAS AND NRAS” (CHUGAI SEIYAKU KABUSHIKI KAISHA, priority 2021, published 2024)
Where a SMILES comes first, the peptide text is derived from it. Bridges are numbered along the chain shown (N, C = ends). [ ]: non-standard residue; d: D form. The star is where a group is joined. hPhe(3-Cl-4-CF3) = N[C@@H](CCc1ccc(C(F)(F)F)c(Cl)c1)C(=O)O; NPrPhe(4-CF3) = CCCN[C@@H](Cc1ccc(C(F)(F)F)cc1)C(=O)O; Pro(4-spirocPr) = O=C(O)[C@@H]1CC2(CC2)CN1; Abu(4,4,4-F3) = N[C@@H](CC(F)(F)F)C(=O)O; Pip(4,4-F2) = O=C(O)[C@@H]1CC(F)(F)CCN1; NMeGly(cPent) = CN[C@H](C(=O)O)C1CCCC1; Gly(cPent) = N[C@H](C(=O)O)C1CCCC1; Hyp = O=C(O)[C@@H]1C[C@@H](O)CN1; Gly(cBu) = N[C@H](C(=O)O)C1CCC1; NMeD = CN[C@@H](CC(=O)O)C(=O)O; NMeL = CN[C@@H](CC(C)C)C(=O)O; hPip = O=C(O)[C@@H]1CCCCCN1; Morpholide = C1CN(*)CCO1; NMeA = CN[C@@H](C)C(=O)O; Ac5c = NC1(C(=O)O)CCCC1; Aze = O=C(O)[C@@H]1CCN1; NPrGly = CCCNCC(=O)O; NEtG = CCNCC(=O)O; Sar = CNCC(=O)O

Columns and labels:
[1] = biological target: GDP-bound NRAS wild-type protein (Homo sapiens, UniProt P01111); test: Binding to NRAS by surface plasmon resonance (SPR), Single Cycle Kinetics; conditions: SPR, GDP-bound NRAS wild-type protein vs GDP-bound KRAS wild-type protein
[2] = biological target: GDP-bound KRAS wild-type protein (Homo sapiens, UniProt P01116); test: Binding to KRAS by surface plasmon resonance (SPR), Single Cycle Kinetics; conditions: SPR Single Cycle Kinetics, GDP-bound KRAS wild-type protein, 1:1 binding model; read-out: KRAS KD
[3] = biological target: GDP-bound HRAS wild-type protein (Homo sapiens, UniProt P01112); test: Binding to HRAS by surface plasmon resonance (SPR), Single Cycle Kinetics; conditions: SPR, GDP-bound HRAS wild-type protein vs GDP-bound KRAS wild-type protein
GDP-bound HRAS wild-type protein, sequence (P01112 whole entry): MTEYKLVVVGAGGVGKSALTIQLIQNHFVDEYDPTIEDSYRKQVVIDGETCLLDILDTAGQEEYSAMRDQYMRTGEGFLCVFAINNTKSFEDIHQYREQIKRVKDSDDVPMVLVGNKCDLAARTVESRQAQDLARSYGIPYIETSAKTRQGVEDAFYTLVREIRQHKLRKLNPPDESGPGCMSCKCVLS

GDP-bound KRAS wild-type protein, sequence (P01116 whole entry): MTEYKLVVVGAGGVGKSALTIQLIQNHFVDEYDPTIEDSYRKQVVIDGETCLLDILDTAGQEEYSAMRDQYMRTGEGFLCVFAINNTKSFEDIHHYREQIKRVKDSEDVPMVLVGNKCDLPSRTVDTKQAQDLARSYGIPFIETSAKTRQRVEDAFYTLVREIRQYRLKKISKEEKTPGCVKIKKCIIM
GDP-bound NRAS wild-type protein, sequence (P01111 whole entry): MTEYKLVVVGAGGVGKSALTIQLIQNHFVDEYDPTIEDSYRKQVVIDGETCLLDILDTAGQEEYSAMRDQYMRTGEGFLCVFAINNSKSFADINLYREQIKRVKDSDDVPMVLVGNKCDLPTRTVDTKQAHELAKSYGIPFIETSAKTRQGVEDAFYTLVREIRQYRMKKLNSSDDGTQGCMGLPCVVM

Row | Kd [2] [nM] | SMILES | NRAS/KRAS (ratio of KD value for NRAS to KD value for KRAS) [1] | HRAS/KRAS (ratio of KD value for HRAS to KD value for KRAS) [3]
1 | 2.2 | CCCN1C(=O)CN(C)C(=O)CN(CC)C(=O)[C@H](CC(F)(F)F)NC(=O)[C@H](CC(C)C)N(C)C(=O)C[C@@H](C(=O)N2CCOCC2)N(C)C(=O)[C@H](C2CCCC2)N(C)C(=O)C2(CCCC2)NC(=O)[C@@H]2CCCN2C(=O)[C@H](CCc2ccc(C(F)(F)F)c(Cl)c2)NC(=O)CN(C)C(=O)[C@@H]1Cc1ccc(C(F)(F)F)cc1 [PP0291] ([NMeL][Abu(4,4,4-F3)][NEtG][Sar][NPrPhe(4-CF3)][Sar][hPhe(3-Cl-4-CF3)]P[Ac5c][NMeGly(cPent)][NMeD]-Morpholide; lactam N-11) | B (a compound having 3 or more and less than 10 is denoted as B) | B (a compound having 3 or more and less than 10 is denoted as B)
2 | 1.7 | CCCN1C(=O)CN(C)C(=O)CN(CC)C(=O)[C@H]([C@@H](C)CC)NC(=O)[C@H](CC(C)C)N(C)C(=O)C[C@@H](C(=O)N2CCOCC2)N(C)C(=O)[C@H](C2CCCC2)N(C)C(=O)C2(CCCC2)NC(=O)[C@@H]2CCN2C(=O)[C@H](CCc2ccc(C(F)(F)F)c(Cl)c2)NC(=O)CN(C)C(=O)[C@@H]1Cc1ccc(C(F)(F)F)cc1 [PP0294] ([NMeL]I[NEtG][Sar][NPrPhe(4-CF3)][Sar][hPhe(3-Cl-4-CF3)][Aze][Ac5c][NMeGly(cPent)][NMeD]-Morpholide; lactam N-11) | B (a compound having 3 or more and less than 10 is denoted as B) | C (A compound having a KD ratio of 0.1 or more and less than 3 is denoted as C)
3 | 0.52 | CCCN1C(=O)CN(C)C(=O)CN(CC)C(=O)[C@H]([C@@H](C)CC)NC(=O)[C@H](CC(C)C)N(C)C(=O)C[C@@H](C(=O)N2CCOCC2)N(C)C(=O)[C@H](C2CCCC2)N(C)C(=O)C2(CCCC2)NC(=O)[C@@H]2CC3(CC3)CN2C(=O)[C@H](CCc2ccc(C(F)(F)F)c(Cl)c2)NC(=O)CN(C)C(=O)[C@@H]1Cc1ccc(C(F)(F)F)cc1 [PP0295] ([NMeL]I[NEtG][Sar][NPrPhe(4-CF3)][Sar][hPhe(3-Cl-4-CF3)][Pro(4-spirocPr)][Ac5c][NMeGly(cPent)][NMeD]-Morpholide; lactam N-11) | B (a compound having 3 or more and less than 10 is denoted as B) | C (A compound having a KD ratio of 0.1 or more and less than 3 is denoted as C)
4 | 0.15 | CCCN1C(=O)CN(C)C(=O)CN(CC)C(=O)[C@H]([C@@H](C)CC)NC(=O)[C@H](CC(C)C)N(C)C(=O)C[C@@H](C(=O)N2CCOCC2)N(C)C(=O)[C@H](C2CCCC2)N(C)C(=O)C2(CCCC2)NC(=O)[C@@H]2C[C@@H](OC)CN2C(=O)[C@H](CCc2ccc(C(F)(F)F)c(Cl)c2)NC(=O)CN(C)C(=O)[C@@H]1Cc1ccc(C(F)(F)F)cc1 [PP0296] ([NMeL]I[NEtG][Sar][NPrPhe(4-CF3)][Sar][hPhe(3-Cl-4-CF3)][Hyp](Me)[Ac5c][NMeGly(cPent)][NMeD]-Morpholide; lactam N-11) | B (a compound having 3 or more and less than 10 is denoted as B) | C (A compound having a KD ratio of 0.1 or more and less than 3 is denoted as C)
5 | 3 | CCCN1C(=O)CN(C)C(=O)CN(CC)C(=O)[C@H]([C@@H](C)CC)NC(=O)[C@H](CC(C)C)N(C)C(=O)C[C@@H](C(=O)N2CCOCC2)N(C)C(=O)[C@H](C2CCCC2)N(C)C(=O)C2(CCCC2)NC(=O)[C@@H]2CC(F)(F)CCN2C(=O)[C@H](CCc2ccc(C(F)(F)F)c(Cl)c2)NC(=O)CN(C)C(=O)[C@@H]1Cc1ccc(C(F)(F)F)cc1 [PP0298] ([NMeL]I[NEtG][Sar][NPrPhe(4-CF3)][Sar][hPhe(3-Cl-4-CF3)][Pip(4,4-F2)][Ac5c][NMeGly(cPent)][NMeD]-Morpholide; lactam N-11) | B (a compound having 3 or more and less than 10 is denoted as B) | C (A compound having a KD ratio of 0.1 or more and less than 3 is denoted as C)

Further lines, the compound ahead of its results:

Row | SMILES | Kd [2] [nM] | NRAS/KRAS (ratio of KD value for NRAS to KD value for KRAS) [1] | HRAS/KRAS (ratio of KD value for HRAS to KD value for KRAS) [3]
6 | CCCN1CC(=O)NC2(CCCC2)C(=O)N(C)[C@@H](C2CCCC2)C(=O)N(C)[C@H](C(=O)N2CCOCC2)CC(=O)N(C)[C@@H](CC(C)C)C(=O)N[C@@H]([C@@H](C)CC)C(=O)N(C)[C@@H](C)C(=O)N2CC[C@H]2C(=O)N(CCC)[C@@H](Cc2ccc(C(F)(F)F)cc2)C(=O)N(C)CC(=O)N[C@@H](CCc2ccc(C(F)(F)F)c(Cl)c2)C1=O [PP0288] ([NMeL]I[NMeA][Aze][NPrPhe(4-CF3)][Sar][hPhe(3-Cl-4-CF3)][NPrGly][Ac5c][NMeGly(cPent)][NMeD]-Morpholide; lactam N-11) | 0.42 | C (A compound having a KD ratio of 0.1 or more and less than 3 is denoted as C) | B (a compound having 3 or more and less than 10 is denoted as B)
7 | CCCN1C(=O)CN(C)C(=O)CN(CC)C(=O)[C@H]([C@@H](C)CC)NC(=O)[C@@H]2CCCCCN2C(=O)C[C@@H](C(=O)N2CCOCC2)N(C)C(=O)[C@H](C2CCCC2)N(C)C(=O)C2(CCCC2)NC(=O)[C@@H]2CCCN2C(=O)[C@H](CCc2ccc(C(F)(F)F)c(Cl)c2)NC(=O)CN(C)C(=O)[C@@H]1Cc1ccc(C(F)(F)F)cc1 [PP0289] ([hPip]I[NEtG][Sar][NPrPhe(4-CF3)][Sar][hPhe(3-Cl-4-CF3)]P[Ac5c][NMeGly(cPent)][NMeD]-Morpholide; lactam N-11) | 2.2 | B (a compound having 3 or more and less than 10 is denoted as B) | B (a compound having 3 or more and less than 10 is denoted as B)
8 | CCCN1C(=O)CN(C)C(=O)CN(CC)C(=O)[C@H](C2CCC2)NC(=O)[C@H](CC(C)C)N(C)C(=O)C[C@@H](C(=O)N2CCOCC2)N(C)C(=O)[C@H](C2CCCC2)N(C)C(=O)C2(CCCC2)NC(=O)[C@@H]2CCCN2C(=O)[C@H](CCc2ccc(C(F)(F)F)c(Cl)c2)NC(=O)CN(C)C(=O)[C@@H]1Cc1ccc(C(F)(F)F)cc1 [PP0292] ([NMeL][Gly(cBu)][NEtG][Sar][NPrPhe(4-CF3)][Sar][hPhe(3-Cl-4-CF3)]P[Ac5c][NMeGly(cPent)][NMeD]-Morpholide; lactam N-11) | 0.54 | B (a compound having 3 or more and less than 10 is denoted as B) | C (A compound having a KD ratio of 0.1 or more and less than 3 is denoted as C)
9 | CCCN1C(=O)CN(C)C(=O)CN(CC)C(=O)[C@H](C2CCCC2)NC(=O)[C@H](CC(C)C)N(C)C(=O)C[C@@H](C(=O)N2CCOCC2)N(C)C(=O)[C@H](C2CCCC2)N(C)C(=O)C2(CCCC2)NC(=O)[C@@H]2CCCN2C(=O)[C@H](CCc2ccc(C(F)(F)F)c(Cl)c2)NC(=O)CN(C)C(=O)[C@@H]1Cc1ccc(C(F)(F)F)cc1 [PP0293] ([NMeL][Gly(cPent)][NEtG][Sar][NPrPhe(4-CF3)][Sar][hPhe(3-Cl-4-CF3)]P[Ac5c][NMeGly(cPent)][NMeD]-Morpholide; lactam N-11) | 0.84 | B (a compound having 3 or more and less than 10 is denoted as B) | C (A compound having a KD ratio of 0.1 or more and less than 3 is denoted as C)
